Here are results for three molecules from ChEMBL document CHEMBL1201862, “PubChem BioAssay data set” (2004).

Experiment [1] concerns the target T1, Mu-type opioid receptor (Homo sapiens, UniProt P35372). The experiment is described as follows: SAR Analysis of Agonists of the MOR Receptor using an Image-Based Assay - Set 3. [Related pubchem assays (depositor defined):AID1777, AID1785, AID1786, AID1966, AID2133, AID2136, AID2284, AID2285, AID2352]. It counts as functional.
The target in experiment [2] is T2, Kappa-type opioid receptor (Homo sapiens, UniProt P41145). The experiment is described as follows: KOR agonist analogs, arrestin-GFP redistribution, SAR follow-up, imaging, image-based, set 3 (AID 488833). The class given is functional.
For experiment [3], the target named is T3, Delta-type opioid receptor (Homo sapiens, UniProt P41143). The experiment is described as follows: SAR Analysis of Agonists of the DOR Receptor using an Image-Based Assay - Set 3. [Related pubchem assays (depositor defined):AID1777, AID1786]. It counts as functional.
The target of experiment [4] is T2, Kappa-type opioid receptor. The experiment is described as follows: SAR analysis of small molecule agonists of the kappa opioid receptor via a luminescent beta-arrestin assay - Set 3. [Related pubchem assays (depositor defined):AID1777, AID1785, AID1786, AID1966, AID2133, AID2136, AID2284, AID2500]. It counts as functional.
In experiment [5] the target is T4, Histone-lysine N-methyltransferase NSD2 (Homo sapiens, UniProt O96028).
T4 sequence (O96028 whole entry): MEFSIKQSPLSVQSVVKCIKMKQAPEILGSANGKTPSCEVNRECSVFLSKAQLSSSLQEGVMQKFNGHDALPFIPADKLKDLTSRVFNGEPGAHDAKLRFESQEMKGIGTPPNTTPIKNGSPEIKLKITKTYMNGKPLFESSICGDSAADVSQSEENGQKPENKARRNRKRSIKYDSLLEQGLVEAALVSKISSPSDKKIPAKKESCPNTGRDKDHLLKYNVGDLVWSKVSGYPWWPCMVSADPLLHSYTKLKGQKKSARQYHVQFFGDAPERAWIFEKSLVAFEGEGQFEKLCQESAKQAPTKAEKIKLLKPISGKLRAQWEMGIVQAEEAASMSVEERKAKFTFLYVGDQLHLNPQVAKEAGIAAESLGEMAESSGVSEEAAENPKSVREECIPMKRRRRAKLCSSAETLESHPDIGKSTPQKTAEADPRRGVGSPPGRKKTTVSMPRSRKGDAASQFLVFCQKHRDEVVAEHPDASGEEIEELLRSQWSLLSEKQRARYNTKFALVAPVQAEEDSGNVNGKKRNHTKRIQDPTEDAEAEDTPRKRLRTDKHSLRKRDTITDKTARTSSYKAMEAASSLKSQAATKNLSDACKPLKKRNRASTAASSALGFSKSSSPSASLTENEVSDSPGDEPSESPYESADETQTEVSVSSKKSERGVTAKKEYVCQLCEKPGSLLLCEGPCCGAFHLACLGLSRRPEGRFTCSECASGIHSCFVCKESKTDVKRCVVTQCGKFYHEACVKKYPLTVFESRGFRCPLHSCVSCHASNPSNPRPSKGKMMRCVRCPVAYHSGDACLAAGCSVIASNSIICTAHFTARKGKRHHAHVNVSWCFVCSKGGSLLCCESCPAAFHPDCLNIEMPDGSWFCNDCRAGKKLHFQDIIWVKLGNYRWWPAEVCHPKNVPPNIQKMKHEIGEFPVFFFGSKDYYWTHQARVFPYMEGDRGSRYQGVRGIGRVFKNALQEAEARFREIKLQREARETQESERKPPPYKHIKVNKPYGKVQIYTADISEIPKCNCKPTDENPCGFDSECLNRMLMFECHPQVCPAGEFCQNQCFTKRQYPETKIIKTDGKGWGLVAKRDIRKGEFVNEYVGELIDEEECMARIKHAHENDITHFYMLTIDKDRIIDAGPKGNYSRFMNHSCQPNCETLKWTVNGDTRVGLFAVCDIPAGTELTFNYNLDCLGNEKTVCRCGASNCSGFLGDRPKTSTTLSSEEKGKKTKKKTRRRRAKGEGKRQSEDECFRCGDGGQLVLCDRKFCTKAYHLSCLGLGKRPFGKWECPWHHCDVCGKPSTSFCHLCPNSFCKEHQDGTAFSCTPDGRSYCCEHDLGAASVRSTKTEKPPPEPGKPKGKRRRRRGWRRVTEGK
The class given is biochemical.

The target in experiment [6] is Intestinal-type alkaline phosphatase (Homo sapiens, UniProt P09923). Briefly: activation of human intestinal alkaline phosphatase – biochemical, dose response (AID 488873). The class given is functional.
The target in experiment [7] is Intestinal-type alkaline phosphatase (Mus musculus, UniProt P24822). The experiment is described as follows: mouse intestinal alkaline phosphatase activators, dose response, biochemical, luminescence, uHTS hits (AID 488783). It counts as functional.
Experiment [8] deals with T5, Rac GTPase-activating protein 1 (Homo sapiens, UniProt Q9H0H5).
T5 sequence (Q9H0H5 whole entry): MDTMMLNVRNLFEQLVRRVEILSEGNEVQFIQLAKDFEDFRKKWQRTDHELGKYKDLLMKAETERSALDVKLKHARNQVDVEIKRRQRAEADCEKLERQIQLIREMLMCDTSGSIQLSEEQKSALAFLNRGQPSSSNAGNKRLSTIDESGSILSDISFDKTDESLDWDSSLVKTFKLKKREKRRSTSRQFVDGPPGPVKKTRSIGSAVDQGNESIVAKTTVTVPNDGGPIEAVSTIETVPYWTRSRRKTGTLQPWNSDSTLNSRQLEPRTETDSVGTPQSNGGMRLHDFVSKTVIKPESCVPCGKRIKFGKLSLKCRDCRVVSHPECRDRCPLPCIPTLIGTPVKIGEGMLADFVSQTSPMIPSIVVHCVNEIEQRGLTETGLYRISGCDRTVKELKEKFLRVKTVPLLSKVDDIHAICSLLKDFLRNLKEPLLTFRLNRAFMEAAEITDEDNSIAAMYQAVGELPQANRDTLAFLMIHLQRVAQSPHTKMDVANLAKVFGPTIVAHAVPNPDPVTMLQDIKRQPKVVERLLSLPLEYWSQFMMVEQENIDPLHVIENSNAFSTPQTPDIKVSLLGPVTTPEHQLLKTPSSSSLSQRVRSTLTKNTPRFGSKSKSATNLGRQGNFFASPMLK
Briefly: MgcRacGAP GTPase-activating activity inhibitors, confirmation, biochemical, ADP Hunter fluorescence, primary and confirmatory (AID 624330). The class given is functional.

A further experiment addresses ORF 73 (Human herpesvirus 8, UniProt O40947). Briefly: inhibitors of C-LANA binding to LBS DNA, dose response, biochemical, fluorescence polarization, cherry-picked samples (AID 504725).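 Note: fluorescence polarization of a labeled DNA duplex reporting LANA DNA binding; potency is for inhibitors that block LANA binding to the DNA.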 On the set-up: species or system Human gammaherpesvirus 8.
A further experiment concerns the target Large T antigen (Simian virus 40, UniProt P03070). The class given is functional, Betapolyomavirus macacae.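 Note: Confirmatory-stage PubChem screen for compounds that inhibit SV40 T antigen.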
Experiment [9] has as its target T6, Alkaline phosphatase, tissue-nonspecific isozyme (Homo sapiens, UniProt P05186).
T6 sequence (P05186 whole entry): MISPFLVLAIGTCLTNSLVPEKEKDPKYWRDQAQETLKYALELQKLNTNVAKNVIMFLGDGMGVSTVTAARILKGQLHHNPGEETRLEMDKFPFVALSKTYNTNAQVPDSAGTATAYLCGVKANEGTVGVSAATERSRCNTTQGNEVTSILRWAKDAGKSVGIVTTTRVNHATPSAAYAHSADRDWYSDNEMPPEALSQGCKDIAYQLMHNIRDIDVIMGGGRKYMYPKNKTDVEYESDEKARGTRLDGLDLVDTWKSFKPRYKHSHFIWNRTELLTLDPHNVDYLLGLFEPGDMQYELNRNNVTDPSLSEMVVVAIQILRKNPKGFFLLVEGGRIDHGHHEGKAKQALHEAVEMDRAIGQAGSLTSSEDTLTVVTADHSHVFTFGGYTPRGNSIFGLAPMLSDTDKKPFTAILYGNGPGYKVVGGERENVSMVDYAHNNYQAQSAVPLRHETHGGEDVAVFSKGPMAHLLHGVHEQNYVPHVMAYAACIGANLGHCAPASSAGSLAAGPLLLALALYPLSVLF
The experiment is described as follows: TNAP enzyme activators, dose response, selectivity assay for mouse IAP activator project, biochemical, TNAP isozyme, mouse IAP uHTS hits (AID 488880). It counts as functional.

Experiment [10] deals with T3, Delta-type opioid receptor. Briefly: DOR antagonists, SAR follow-up, image-based (AID 2357). The class given is functional.
The target in experiment [11] is T1, Mu-type opioid receptor. Briefly: MOR antagonists, SAR follow-up, image-based (AID 2420).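 Note: compounds added before stimulation of receptor with agonist DAMGO.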 The class given is functional.
Experiment [12] concerns the target T3, Delta-type opioid receptor. The experiment is described as follows: DOR agonists, SAR follow-up, image-based (AID 2370). It counts as functional.
Experiment [13] deals with T2, Kappa-type opioid receptor. The experiment is described as follows: kappa opioid receptor blockers, cell-based, luminescence, beta-arrestin, SAR follow-up (AID 2285). The class given is functional.
Experiment [14] has as its target T2, Kappa-type opioid receptor. Briefly: KOR antagonists by imaging, SAR follow-up, image-based (AID 2348). It counts as functional.
Experiment [15] deals with T2, Kappa-type opioid receptor. The experiment is described as follows: KOR agonist analogs, imaging readout, SAR follow-up, image-based (AID 2359). It counts as functional.
Experiment [16] concerns the target T1, Mu-type opioid receptor. Briefly: MOR agonists by imaging, SAR follow-up, image-based (AID 2352). It counts as functional.

Calls of active or inactive are those of the source. Where only a bound is given, the exact number is not on record here.

T3 sequence (P41143 whole entry): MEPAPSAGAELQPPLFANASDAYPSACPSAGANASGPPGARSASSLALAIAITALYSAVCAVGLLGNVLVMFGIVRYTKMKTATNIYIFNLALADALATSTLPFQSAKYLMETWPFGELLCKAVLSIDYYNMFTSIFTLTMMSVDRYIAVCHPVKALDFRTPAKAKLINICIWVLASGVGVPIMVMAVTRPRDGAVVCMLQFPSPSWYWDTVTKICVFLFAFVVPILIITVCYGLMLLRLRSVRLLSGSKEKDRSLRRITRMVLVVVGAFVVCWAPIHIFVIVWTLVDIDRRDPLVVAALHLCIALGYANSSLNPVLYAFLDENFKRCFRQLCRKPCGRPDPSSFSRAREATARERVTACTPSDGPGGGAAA
T1 sequence (P35372 whole entry): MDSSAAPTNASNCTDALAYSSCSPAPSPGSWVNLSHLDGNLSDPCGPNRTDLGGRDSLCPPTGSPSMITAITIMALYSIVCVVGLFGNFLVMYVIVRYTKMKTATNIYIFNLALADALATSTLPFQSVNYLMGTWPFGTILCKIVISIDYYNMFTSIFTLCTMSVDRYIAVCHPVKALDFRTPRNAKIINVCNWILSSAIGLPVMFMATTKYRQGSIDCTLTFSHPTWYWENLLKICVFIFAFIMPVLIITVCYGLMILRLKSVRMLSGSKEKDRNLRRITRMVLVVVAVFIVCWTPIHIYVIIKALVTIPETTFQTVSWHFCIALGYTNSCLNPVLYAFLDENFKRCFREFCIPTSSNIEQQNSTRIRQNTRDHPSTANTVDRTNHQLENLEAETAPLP
T2 sequence (P41145 whole entry): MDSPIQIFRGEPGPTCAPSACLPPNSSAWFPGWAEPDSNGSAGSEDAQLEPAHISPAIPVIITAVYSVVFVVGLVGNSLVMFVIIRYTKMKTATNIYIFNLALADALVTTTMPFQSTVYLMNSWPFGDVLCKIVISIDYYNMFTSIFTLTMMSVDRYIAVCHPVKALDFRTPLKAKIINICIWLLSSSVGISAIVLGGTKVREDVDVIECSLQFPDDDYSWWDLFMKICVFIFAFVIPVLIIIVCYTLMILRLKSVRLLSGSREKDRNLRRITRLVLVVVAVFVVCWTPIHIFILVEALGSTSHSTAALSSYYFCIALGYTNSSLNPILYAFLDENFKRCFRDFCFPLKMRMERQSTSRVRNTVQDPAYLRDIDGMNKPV
Chain of Large T antigen (P03070 whole entry): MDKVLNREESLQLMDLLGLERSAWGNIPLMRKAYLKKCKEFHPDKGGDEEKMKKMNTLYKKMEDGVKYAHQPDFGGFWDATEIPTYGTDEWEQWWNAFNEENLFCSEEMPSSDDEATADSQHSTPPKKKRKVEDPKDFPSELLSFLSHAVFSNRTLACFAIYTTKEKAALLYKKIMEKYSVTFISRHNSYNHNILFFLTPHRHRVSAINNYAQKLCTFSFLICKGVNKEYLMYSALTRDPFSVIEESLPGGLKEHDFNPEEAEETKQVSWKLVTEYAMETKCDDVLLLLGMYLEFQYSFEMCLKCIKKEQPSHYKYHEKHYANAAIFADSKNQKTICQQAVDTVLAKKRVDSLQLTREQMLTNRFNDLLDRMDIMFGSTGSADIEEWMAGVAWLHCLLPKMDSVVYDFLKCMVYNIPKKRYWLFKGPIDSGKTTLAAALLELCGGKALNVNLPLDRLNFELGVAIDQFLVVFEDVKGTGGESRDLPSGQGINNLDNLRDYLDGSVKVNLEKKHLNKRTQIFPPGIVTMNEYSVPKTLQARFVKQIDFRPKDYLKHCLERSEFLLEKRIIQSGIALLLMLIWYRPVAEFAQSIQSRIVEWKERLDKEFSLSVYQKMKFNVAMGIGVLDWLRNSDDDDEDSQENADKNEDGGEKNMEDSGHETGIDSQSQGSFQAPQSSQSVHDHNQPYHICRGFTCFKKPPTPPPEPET
Chain of ORF 73 (O40947 whole entry): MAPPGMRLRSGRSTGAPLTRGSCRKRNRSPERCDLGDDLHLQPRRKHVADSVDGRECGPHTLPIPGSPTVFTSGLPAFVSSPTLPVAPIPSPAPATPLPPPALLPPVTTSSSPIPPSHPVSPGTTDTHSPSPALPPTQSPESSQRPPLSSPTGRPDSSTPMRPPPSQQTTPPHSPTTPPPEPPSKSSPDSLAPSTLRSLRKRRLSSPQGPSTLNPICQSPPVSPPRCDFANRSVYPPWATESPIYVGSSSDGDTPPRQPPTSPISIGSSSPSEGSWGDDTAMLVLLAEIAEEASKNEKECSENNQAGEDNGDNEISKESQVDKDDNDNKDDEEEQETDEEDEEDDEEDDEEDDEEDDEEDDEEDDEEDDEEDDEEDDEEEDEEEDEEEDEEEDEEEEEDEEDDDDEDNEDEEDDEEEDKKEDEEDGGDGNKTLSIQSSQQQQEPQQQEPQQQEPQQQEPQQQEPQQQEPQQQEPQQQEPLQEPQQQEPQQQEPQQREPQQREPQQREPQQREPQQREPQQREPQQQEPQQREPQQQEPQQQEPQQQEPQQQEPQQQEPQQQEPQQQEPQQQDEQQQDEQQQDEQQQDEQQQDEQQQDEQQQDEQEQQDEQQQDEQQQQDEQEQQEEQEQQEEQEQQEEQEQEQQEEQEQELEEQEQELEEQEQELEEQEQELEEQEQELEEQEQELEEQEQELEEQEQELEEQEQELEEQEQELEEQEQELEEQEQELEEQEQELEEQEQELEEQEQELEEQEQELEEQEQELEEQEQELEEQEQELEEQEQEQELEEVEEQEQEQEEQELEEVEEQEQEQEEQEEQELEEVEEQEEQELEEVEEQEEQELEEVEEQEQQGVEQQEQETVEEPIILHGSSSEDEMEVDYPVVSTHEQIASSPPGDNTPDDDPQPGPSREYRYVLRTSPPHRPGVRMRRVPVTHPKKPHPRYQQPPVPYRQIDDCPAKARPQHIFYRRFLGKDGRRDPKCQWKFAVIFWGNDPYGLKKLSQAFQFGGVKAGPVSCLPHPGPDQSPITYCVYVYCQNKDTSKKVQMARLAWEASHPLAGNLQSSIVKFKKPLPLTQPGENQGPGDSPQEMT
Chain of Intestinal-type alkaline phosphatase (Homo sapiens, UniProt P09923) (P09923 whole entry): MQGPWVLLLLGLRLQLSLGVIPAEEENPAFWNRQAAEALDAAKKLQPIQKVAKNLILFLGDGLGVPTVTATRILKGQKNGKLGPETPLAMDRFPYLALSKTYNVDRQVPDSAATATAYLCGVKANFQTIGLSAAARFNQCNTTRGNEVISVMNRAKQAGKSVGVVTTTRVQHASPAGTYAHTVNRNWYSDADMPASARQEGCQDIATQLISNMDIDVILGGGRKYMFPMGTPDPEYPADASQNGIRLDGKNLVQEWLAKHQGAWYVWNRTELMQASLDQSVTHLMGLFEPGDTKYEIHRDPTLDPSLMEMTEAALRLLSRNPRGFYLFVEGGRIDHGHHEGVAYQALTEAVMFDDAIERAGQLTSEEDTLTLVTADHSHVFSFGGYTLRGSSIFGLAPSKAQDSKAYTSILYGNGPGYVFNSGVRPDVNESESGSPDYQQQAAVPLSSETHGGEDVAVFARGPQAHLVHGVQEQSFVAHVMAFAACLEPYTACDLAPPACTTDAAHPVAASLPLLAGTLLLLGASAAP
Chain of Intestinal-type alkaline phosphatase (Mus musculus, UniProt P24822) (P24822 whole entry): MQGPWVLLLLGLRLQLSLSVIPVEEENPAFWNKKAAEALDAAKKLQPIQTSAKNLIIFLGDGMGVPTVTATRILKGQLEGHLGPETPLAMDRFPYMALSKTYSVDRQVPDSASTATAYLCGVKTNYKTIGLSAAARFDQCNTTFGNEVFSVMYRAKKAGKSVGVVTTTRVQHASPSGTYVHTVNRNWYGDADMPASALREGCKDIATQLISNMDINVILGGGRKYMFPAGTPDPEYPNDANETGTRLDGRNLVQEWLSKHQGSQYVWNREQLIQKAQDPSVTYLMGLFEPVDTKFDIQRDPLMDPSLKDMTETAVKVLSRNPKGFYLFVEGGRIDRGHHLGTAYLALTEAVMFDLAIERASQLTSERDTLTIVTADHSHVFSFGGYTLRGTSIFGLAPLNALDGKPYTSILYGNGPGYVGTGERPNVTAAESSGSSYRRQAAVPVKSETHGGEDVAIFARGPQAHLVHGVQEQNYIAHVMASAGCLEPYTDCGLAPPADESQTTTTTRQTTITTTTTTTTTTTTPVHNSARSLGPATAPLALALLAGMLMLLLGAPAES

For the molecule `COc1cccc(CSc2nnc(-c3ccccn3)n2Cc2ccco2)c1`, the EC50 – broadly, the midpoint of the concentration-response curve – at Mu-type opioid receptor [1] was > 32 µM (inactive); in experiment [2] it was > 32 µM (inactive); in experiment [3] it was > 64 µM (inactive); in experiment [4] it was 15.3 µM (inactive).

With `N=C1/C(=C/c2ccc(O)c(O)c2)C(=O)N=C2SC(CC(=O)N3CCCC3)=NN12`, the AC50 (usually the concentration giving half of the maximal activity seen) was 3.26 µM (active) in experiment [5] and 161 µM (active) at ORF 73. Moreover, the 50% effective concentration (EC50) in experiment [6] is 9.7 µM (active); in experiment [7], 100 µM (inactive); in experiment [9] it was 9.2 µM (active). Besides, the IC50 (commonly the point on the concentration scale where inhibition reaches its midpoint) in experiment [8] was 66 µM (active); on Large T antigen, 7.22 µM (active).

Consider `COc1ccc(N2CCN(CCCNC(=O)Cn3c(=O)c4cccn4c4ccccc43)CC2)cc1`, for which the IC50 is > 32 µM (inactive) in [10], > 32 µM (inactive) at Mu-type opioid receptor [11], 4.32 µM (active) in experiment [13] and 15.3 µM (inactive) in experiment [14]. In addition, the EC50 (in experiment [12]; in [15]; at Mu-type opioid receptor [16]) was > 32 µM (inactive) each time.
